Measured values published in publication PMC5335257, “Promoting in vivo remyelination with small molecules: a neuroreparative pharmacological treatment for Multiple Sclerosis” (Scientific Reports, 2017).

What was measured:
[1] = tested on: OPCs from P0 mice; test: Survival assay (Casp3+-A2B5+ cells); format: cell-based, mouse; conditions: murine P0 OPCs, 1 μM, 2 DIV
Procedure: We isolated OPCs, as previously described. Briefly, a stock papain solution was prepared containing ([…]; Worthington Biochemical), L-cysteine (0.2 mg/ml; Sigma), and EDTA (0.2 mg/ml; Sigma) in Hank’s Balanced Salt Solution (HBSS; Invitrogen) without Ca^2+ and Mg[2]. Then, the cerebral cortices of P0 CD1 mice were dissected out and placed for 5 minutes at 37 °C in a medium containing the stock papain solution in HBSS with Ca^2+ and Mg^2+ (1:10; Invitrogen) in order to easily remove the meninges. Once meninges and choroid plexus were removed, the tissue was enzymatically dissociated for 5 minutes at 37 °C again by using the papain solution (1:10 in HBSS without Ca^2+ and Mg^2+) and the digested tissue was then filtered through a 100 μm nylon mesh strainer (BD Biosciences) and seeded on poly-L-ornithine-coated (Sigma) 75 cm^2 flasks in DMEM medium (Invitrogen) containing 10% foetal bovine serum (FBS; BioWhittaker) and 100 U/mL penicillin, 0.1 mg/mL streptomycin and 0.25 μg/ml Amphotericin B antibiotic antimycotic solution (Sigma). Cultures were maintained at 37 °C and 5% CO2, and the medium was changed every 3 days. […] The resulting enriched oligodendrocyte progenitor cell suspension was counted and seeded. […]

[2] = tested on: OPCs from P0 mice; test: Proliferation assay (BrdU incorporation); format: cell-based, mouse; conditions: murine P0 OPCs, 1 μM, 72 h
Procedure: We isolated OPCs, as previously described. Briefly, a stock papain solution was prepared containing ([…]; Worthington Biochemical), L-cysteine (0.2 mg/ml; Sigma), and EDTA (0.2 mg/ml; Sigma) in Hank’s Balanced Salt Solution (HBSS; Invitrogen) without Ca^2+ and Mg[2]. Then, the cerebral cortices of P0 CD1 mice were dissected out and placed for 5 minutes at 37 °C in a medium containing the stock papain solution in HBSS with Ca^2+ and Mg^2+ (1:10; Invitrogen) in order to easily remove the meninges. […] The resulting enriched oligodendrocyte progenitor cell suspension was counted and seeded.
OPCs were placed on coverslips coated with poly-L-lysine (Sigma) and laminin (Sigma; 2 × 10^4 cells/well) and they were incubated with the inhibitors (VP3.15 or TDZD8; 1 μM) in the serum free medium described above. After 42 h in culture, BrdU (50 μM; Sigma) was added for 6 h and after a total of 72 h in culture, the cells were fixed and BrdU incorporation was detected by immunocytochemistry (1:20; G3G4, HybridomaBank) combined with the detection of the oligodendroglial marker Olig2 (1:250; Millipore; Cat#AB9610). […]

[3] = tested on: corpus callosum of LPC-injected mice; test: In vivo remyelination, LPC demyelination model; parameters: species or system C57/BL6 male mice; conditions: 10 mg/kg i.p. from 9 dpi
Procedure: Anaesthetized 8 week old C57/BL6 male mice were injected with 2 μl of 1% LPC through a hole drilled in the skull at stereotactic coordinates 1.2 mm posterior, 0.5 mm lateral, 1.4 mm deep to the bregma over 4 minutes using a 30-gauge needle attached to a Hamilton syringe, driven by a KD Scientific Nano pump, for 4 minutes to reduce backflow as previously described. At 9 days post injection (dpi), the first intraperitoneal dose of PDE7-GSK3 inhibitors (VP1.15 or VP3.15; 10 mg/kg of animal) was injected using the same solution detailed above for the cuprizone model. Each inhibitor was injected into a group of 10 mice and another group of 10 mice was injected with the vehicle. Two days after, a second dose was injected (11 dpi) and 5 mice of each group were perfused at 14 dpi with 4% PFA and 2% glutaraldehyde (GTA) in phosphate buffer. The remaining 5 animals of each group received a third injection of inhibitors (15 dpi) and were perfused at 21 dpi. A control group of 3 non-lesioned and non-treated mice was used as control. Fixed brains were post-fixed in 1% GTA for 7 days and then coronally cut into 1 mm slices. The slices containing the injected areas were selected and the area of interest was cut and processed for electron microscopy into a resin (Araldite/TAAB 812 Resin Kit, TAAB) following manufacturer instructions.
In order to detect the injured areas for investigation, sagittal semi-thin sections (1 μm) were cut using an ultramicrotome (Leica) and stained with toluidine blue. Ultra-thin sections (60 nm thick) were cut and stained in uranyl acetate and lead citrate and the ultrastructure was analysed taking images with a GatanOrius CCD camera coupled to a transmission electronic microscope (Philips CM120). The percentage of myelinated fibres and the thickness of myelin sheaths were examined. The mean percentage of myelinated fibres was measured from 10 fields per animal. Grids were overlaid onto the images and all axons intersecting with the grid lines were counted as myelinated or not[83][84]. The thickness of myelin around myelinated fibres was expressed as a g-ratio (axon perimeter divided by myelinated fibre perimeter) using ImageJ by tracing around a minimum of 100 individual fibres per mouse, using a pen and electronic pad (Bamboo pad, Wacom). To select the fibres randomly, a grid composed by 8 μm[2] squares was overlaid onto the images and fibres in alternate squares were measured. Data were expressed as the mean ± SEM.

[4] = tested on: GSK-3; parameters: method as in PMID 24437940; conditions: read-out: GSK-3 inhibition IC50; cited from earlier work
[5] = parameters: method as in PMID 23077723, PMID 25264825; conditions: cited from earlier work

With c1ccc(-c2n/c(=N/CCN3CCOCC3)sn2-c2ccccc2)cc1 [VP3.15] the “OPC survival (Casp3+-A2B5+ apoptotic cells)” value [1] was “without affecting”, the “OPC proliferation (BrdU+-Olig2+ cells)” value [2] was “no changes” and the “thickness of myelin sheaths (G-ratio) vs untreated demyelinated control” value [3] was “increased the thickness”. The “percentage of myelinated callosal fibers vs vehicle” value ([3]; analysed at 14 or 21 dpi) was “did not show any effect”, the IC50 [4] was 880 nM and the emetic side effects [5] was “without emetic side effects”.
